# Target: human, KCNT1 (Homo sapiens (Human), UniProt Q5JUK3)
# Assay: FLIPR Tl/K Flux Assay
# Type: cell-based
# Details: HEK293 cells stably expressing human KCNT1; Tl+ flux stimulated with EC80 of agonist Loxapine
# Method in brief: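 HEK293 cells stably expressing human KCNT1 were loaded with FLIPR potassium dye in HEPES/HBSS pH 7.4 with 5 mM probenecid, 1 h at 25 °C, then given test compound for 30 min at 25 °C. Tl+ flux was triggered with chloride-free buffer containing Tl+ and EC80 loxapine and read 160 s. IC50 came from Hill fits of % inhibition.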
# human, KCNT1, sequence (Q5JUK3 whole entry): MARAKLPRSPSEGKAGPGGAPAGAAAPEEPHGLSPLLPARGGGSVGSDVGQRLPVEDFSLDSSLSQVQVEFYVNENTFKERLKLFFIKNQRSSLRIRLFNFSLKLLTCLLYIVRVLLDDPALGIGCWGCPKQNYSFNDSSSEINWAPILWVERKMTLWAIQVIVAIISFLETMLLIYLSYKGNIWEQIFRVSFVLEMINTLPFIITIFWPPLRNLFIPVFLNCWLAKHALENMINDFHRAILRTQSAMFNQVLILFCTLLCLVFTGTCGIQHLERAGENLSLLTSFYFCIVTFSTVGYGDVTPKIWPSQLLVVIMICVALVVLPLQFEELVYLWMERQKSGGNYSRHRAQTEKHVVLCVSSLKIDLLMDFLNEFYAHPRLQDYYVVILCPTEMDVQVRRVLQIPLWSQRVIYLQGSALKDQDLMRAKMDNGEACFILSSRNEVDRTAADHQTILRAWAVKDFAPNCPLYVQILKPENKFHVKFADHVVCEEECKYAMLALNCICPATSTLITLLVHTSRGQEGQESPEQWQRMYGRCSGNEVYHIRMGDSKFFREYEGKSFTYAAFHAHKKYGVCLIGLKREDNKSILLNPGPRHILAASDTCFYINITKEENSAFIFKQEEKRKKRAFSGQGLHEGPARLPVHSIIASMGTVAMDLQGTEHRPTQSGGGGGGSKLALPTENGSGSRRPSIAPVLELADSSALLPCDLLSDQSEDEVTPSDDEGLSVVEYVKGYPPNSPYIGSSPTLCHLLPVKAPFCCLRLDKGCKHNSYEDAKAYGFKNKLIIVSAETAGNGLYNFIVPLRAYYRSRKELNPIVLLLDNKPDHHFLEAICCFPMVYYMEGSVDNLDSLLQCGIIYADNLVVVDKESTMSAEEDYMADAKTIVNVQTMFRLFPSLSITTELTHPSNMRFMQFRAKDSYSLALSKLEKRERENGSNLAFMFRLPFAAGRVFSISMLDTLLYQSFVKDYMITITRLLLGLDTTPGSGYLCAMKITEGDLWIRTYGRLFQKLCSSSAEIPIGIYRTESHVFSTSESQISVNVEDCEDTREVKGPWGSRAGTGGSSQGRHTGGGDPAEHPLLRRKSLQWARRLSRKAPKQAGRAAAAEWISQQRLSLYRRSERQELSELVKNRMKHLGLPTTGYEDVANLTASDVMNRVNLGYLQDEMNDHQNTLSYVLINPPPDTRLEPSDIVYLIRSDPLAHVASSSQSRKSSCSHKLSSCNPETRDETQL
row,SMILES,IC50 [µM]
1,Cc1c(-c2ccnc(C(F)(F)F)c2)nn2c1[C@H](NC(=O)c1cc(C(F)(F)F)nn1C)CCC2 [Compound I-353b],0.5 to 1
2,COc1cc(-c2cc3n(n2)CCC[C@@H]3NC(=O)c2cccc(C(F)(F)F)c2)ccn1 [Compound I-355a],< 0.25
3,COc1cc(-c2cc3n(n2)CCC[C@@H]3NC(=O)c2cccc(C(F)(F)F)n2)ccn1 [Compound I-356a],0.25 to 0.5
4,CCOc1cc(-n2cc3c(n2)CCCC[C@H]3NC(=O)c2cc(C(F)(F)F)nn2C)ccn1 [Compound I-360b],> 1
5,CCOc1cc(-n2cc3c(n2)CCCC[C@H]3NC(=O)c2cccc(C)c2)ccn1 [Compound I-361b],> 1
6,COc1cc(-c2cc3n(n2)CCC[C@@H]3NC(=O)c2cc(C(F)(F)F)ccn2)ccn1 [Compound I-365a],0.25 to 0.5
7,O=C(N[C@H]1CCCn2nc(-c3ccnc(C(F)(F)F)c3)cc21)c1cc2n(n1)CCC2 [Compound I-368a],> 1
8,Cn1nc(C2CC2)cc1C(=O)N[C@@H]1CCCCc2nn(-c3ccnc(C(F)(F)F)c3)cc21 [Compound I-369b],> 1
9,Cc1cc(C)cc(C(=O)N[C@@H]2CCc3nn(-c4ccnc(C(F)(F)F)c4)cc32)c1 [Compound I-372b],0.5 to 1
10,Cn1nc(C(F)(F)F)cc1C(=O)N[C@H]1CCCc2nn(-c3ccnc(C#N)c3)cc21 [Compound I-375a],> 1
11,COc1cc(-n2cc3c(n2)CCCC[C@H]3NC(=O)c2cccc(C)c2)ccn1 [Compound I-376b],> 1
12,Cn1nc(C(F)(F)F)cc1C(=O)N[C@H]1CCCc2ncc(-c3ccnc(C(F)(F)F)c3)cc21 [Compound I-383a],> 1
13,Cn1nc(C(F)(F)F)cc1C(=O)N[C@@H]1CCCc2ncc(-c3ccnc(C(F)(F)F)c3)cc21 [Compound I-383b],> 1
14,Cn1nc(C(F)(F)F)cc1C(=O)N[C@@H]1CCCCn2nc(-c3ccnc(C(F)(F)F)c3)cc21 [Compound I-385b],0.25 to 0.5
15,Cc1c(C(F)(F)F)nn(C)c1C(=O)N[C@H]1CCc2nn(-c3ccnc(C(F)(F)F)c3)cc21 [Compound I-386a],> 1
16,COc1cc(-c2cc3c(cn2)CCCC3NC(=O)c2cc(C(F)(F)F)nn2C)ccn1 (stereo not shown) [Compound I-393],> 1
17,Cc1cccc(C(=O)N[C@H]2CCCc3cnc(-c4ccnc(C(F)(F)F)c4)cc32)c1 [Compound I-394a],0.25 to 0.5
18,CS(=O)(=O)c1cccc(C(=O)N[C@H]2CCc3nn(-c4ccnc(C(F)(F)F)c4)cc32)c1 [Compound I-395a],> 1
19,Cc1cc(C(=O)N[C@H]2CCCn3nc(-c4ccnc(C(F)(F)F)c4)cc32)cn(C)c1=O [Compound I-397a],> 1
20,O=C(N[C@H]1CCCn2nc(-c3ccnc(C(F)(F)F)c3)cc21)c1cn(C2CC2)nn1 [Compound I-401a],> 1
21,Cc1nc(C(F)(F)F)c(C(=O)N[C@H]2CCCn3nc(-c4ccnc(C(F)(F)F)c4)cc32)s1 [Compound I-406a],0.25 to 0.5
22,Cn1ncc(C(=O)N[C@H]2CCCn3nc(-c4ccnc(C(F)(F)F)c4)cc32)c1Cl [Compound I-407a],0.25 to 0.5
23,O=C(N[C@H]1CCCn2nc(-c3ccnc(C(F)(F)F)c3)cc21)c1ccc(F)c(OC(F)(F)F)c1 [Compound I-411a],< 0.25
24,CC(C)n1cnc(C(=O)N[C@H]2CCCn3nc(-c4ccnc(C(F)(F)F)c4)cc32)n1 [Compound I-412a],> 1
25,O=C(N[C@H]1CCCn2nc(-c3ccnc(C(F)(F)F)c3)cc21)c1cc2n(n1)CCCO2 [Compound I-413a],> 1
26,Cc1cc(C(=O)N[C@H]2CCCn3nc(-c4ccnc(C(F)(F)F)c4)cc32)cc(C)n1 [Compound I-414a],< 0.25
27,Cn1cc(C(=O)N[C@H]2CCCn3nc(-c4ccnc(C(F)(F)F)c4)cc32)c(C(F)F)n1 [Compound I-415a],< 0.25
28,Cc1cn(C)nc1C(=O)N[C@H]1CCCn2nc(-c3ccnc(C(F)(F)F)c3)cc21 [Compound I-416a],0.25 to 0.5
29,Cc1nn(C)c(C(=O)N[C@H]2CCCn3nc(-c4ccnc(C(F)(F)F)c4)cc32)c1F [Compound I-417a],< 0.25

# The remaining lines, values ahead:
row,IC50 [µM],SMILES
1,< 0.25,COc1cc(-c2cc3n(n2)CCC[C@@H]3NC(=O)c2cc(Cl)cc(C(F)(F)F)c2)ccn1 [Compound I-354a]
2,< 0.25,COc1cc(-c2cc3n(n2)CCC[C@@H]3NC(=O)c2cncc(C(F)(F)F)c2)ccn1 [Compound I-357a]
3,< 0.25,Cc1nc(C(F)(F)F)sc1C(=O)N[C@H]1CCCn2nc(-c3ccnc(C(F)(F)F)c3)cc21 [Compound I-358a]
4,< 0.25,Cc1c(-n2cc3c(n2)CCC[C@@H]3NC(=O)c2cc(C(F)(F)F)nn2C)ccnc1C(F)(F)F [Compound I-359a]
5,< 0.25,CCOc1cc(-n2cc3c(n2)CCCC[C@@H]3NC(=O)c2cc(C(F)(F)F)nn2C)ccn1 [Compound I-360a]
6,< 0.25,CCOc1cc(-n2cc3c(n2)CCCC[C@@H]3NC(=O)c2cccc(C)c2)ccn1 [Compound I-361a]
7,< 0.25,Cn1nc(C2CCC2)cc1C(=O)N[C@H]1CCCn2nc(-c3ccnc(C(F)(F)F)c3)cc21 [Compound I-362a]
8,< 0.25,Cn1nc(C(C)(F)F)cc1C(=O)N[C@H]1CCCn2nc(-c3ccnc(C(F)(F)F)c3)cc21 [Compound I-363a]
9,< 0.25,COc1cc(-c2cc3n(n2)CCC[C@@H]3NC(=O)c2ccnc(C(F)(F)F)c2)ccn1 [Compound I-364a]
10,< 0.25,COc1cc(-c2cc3n(n2)CCC[C@@H]3NC(=O)c2cc(C(F)(F)F)nn2C)ccn1 [Compound I-366a]
11,< 0.25,CC(C)Oc1cc(C(=O)N[C@H]2CCCn3nc(-c4ccnc(C(F)(F)F)c4)cc32)n(C)n1 [Compound I-367a]
12,< 0.25,Cn1nc(C2CC2)cc1C(=O)N[C@H]1CCCCc2nn(-c3ccnc(C(F)(F)F)c3)cc21 [Compound I-369a]
13,< 0.25,Cn1nc(OC2CC2)cc1C(=O)N[C@H]1CCCn2nc(-c3ccnc(C(F)(F)F)c3)cc21 [Compound I-370a]
14,< 0.25,O=C(N[C@H]1CCCn2nc(-c3ccnc(C(F)(F)F)c3)cc21)c1cc(C(F)(F)F)nn1C1CC1 [Compound I-371a]
15,< 0.25,Cc1cc(C)cc(C(=O)N[C@H]2CCc3nn(-c4ccnc(C(F)(F)F)c4)cc32)c1 [Compound I-372a]
16,< 0.25,Cc1cc(C(=O)N[C@H]2CCc3nn(-c4ccnc(C(F)(F)F)c4)cc32)cc(C(F)(F)F)c1 [Compound I-373a]
17,< 0.25,Cc1cc(C(=O)N[C@@H]2CCc3nn(-c4ccnc(C(F)(F)F)c4)cc32)cc(C(F)(F)F)c1 [Compound I-373b]
18,< 0.25,COc1cc(-n2cc3c(n2)CCCC[C@@H]3NC(=O)c2cccc(C)c2)ccn1 [Compound I-376a]
19,< 0.25,Cn1nc(C(F)(F)F)cc1C(=O)N[C@H]1CCCn2nc(-c3ccnc(C4CCC4)c3)cc21 [Compound I-377a]
20,< 0.25,Cn1nc(C(F)(F)F)cc1C(=O)N[C@H]1CCCn2nc(-c3ccnc(OC(F)F)c3)cc21 [Compound I-378a]
21,< 0.25,Cn1nc(C(F)(F)F)cc1C(=O)N[C@H]1CCCn2nc(-c3ccnc(C(C)(F)F)c3)cc21 [Compound I-379a]

row,IC50 [µM],SMILES
1,< 0.25,CC(C)n1nc(C(F)(F)F)cc1C(=O)N[C@H]1CCCn2nc(-c3ccnc(C(F)(F)F)c3)cc21 [Compound I-381a]
2,< 0.25,O=C(N[C@H]1CCCn2nc(-c3ccnc(C(F)(F)F)c3)cc21)c1ccn(C(F)(F)F)n1 [Compound I-382a]
3,< 0.25,Cc1cc(F)cc(C(=O)N[C@@H]2CCc3nn(-c4ccnc(C(F)(F)F)c4)cc32)c1 [Compound I-384b]
4,< 0.25,Cn1nc(C(F)(F)F)cc1C(=O)N[C@H]1CCCCn2nc(-c3ccnc(C(F)(F)F)c3)cc21 [Compound I-385a]
5,< 0.25,O=C(N[C@H]1CCCCn2nc(-c3ccnc(C(F)(F)F)c3)cc21)c1cc(Cl)cc(C(F)(F)F)c1 [Compound I-387a]
6,< 0.25,Cn1nc(C2CC2)cc1C(=O)N[C@H]1CCCCn2nc(-c3ccnc(C(F)(F)F)c3)cc21 [Compound I-388a]
7,< 0.25,Cn1nc(CC(F)(F)F)cc1C(=O)N[C@H]1CCCn2nc(-c3ccnc(C(F)(F)F)c3)cc21 [Compound I-389a]
8,< 0.25,CCc1cc(-c2cc3n(n2)CCC[C@@H]3NC(=O)c2cc(C(F)(F)F)nn2C)ccn1 [Compound I-390a]
9,< 0.25,Cn1nc(C(F)(F)F)cc1C(=O)N[C@H]1CCCn2nc(-c3ccnc(OC(F)(F)F)c3)cc21 [Compound I-391a]
10,< 0.25,O=C(N[C@H]1CCCc2cnc(-c3ccnc(C(F)(F)F)c3)cc21)c1cccc(C(F)(F)F)c1 [Compound I-392a]
11,< 0.25,O=C(N[C@H]1CCc2nn(-c3ccnc(C(F)(F)F)c3)cc21)c1cc(F)cc(Cl)c1 [Compound I-396a]
12,< 0.25,O=C(N[C@H]1CCCn2nc(-c3ccnc(C(F)(F)F)c3)cc21)c1cn(C2CC2)nc1C(F)(F)F [Compound I-398a]
13,< 0.25,O=C(N[C@H]1CCCn2nc(-c3ccnc(C(F)(F)F)c3)cc21)c1cnn(C(F)(F)F)c1 [Compound I-399a]
14,< 0.25,O=C(N[C@H]1CCCn2nc(-c3ccnc(C(F)(F)F)c3)cc21)c1ccc2ccnn2c1 [Compound I-400a]
15,< 0.25,Cc1cc(C(=O)N[C@H]2CCCn3nc(-c4ccnc(C(F)(F)F)c4)cc32)nc(C2CC2)n1 [Compound I-402a]
16,< 0.25,O=C(N[C@H]1CCCn2nc(-c3ccnc(C(F)(F)F)c3)cc21)c1ccnn1CC(F)F [Compound I-403a]
17,< 0.25,N#Cc1cc(OC(F)(F)F)cc(C(=O)N[C@H]2CCCn3nc(-c4ccnc(C(F)(F)F)c4)cc32)c1 [Compound I-404a]
18,< 0.25,O=C(N[C@H]1CCCn2nc(-c3ccnc(C(F)(F)F)c3)cc21)c1cccc(F)c1F [Compound I-405a]
19,< 0.25,O=C(N[C@H]1CCCn2nc(-c3ccnc(C(F)(F)F)c3)cc21)c1cnn2cc(F)ccc12 [Compound I-408a]
20,< 0.25,O=C(N[C@H]1CCCn2nc(-c3ccnc(C(F)(F)F)c3)cc21)c1ccc(F)c(C(F)(F)F)c1 [Compound I-410a]

# — patent US20250313548A1 (Actio Biosciences, Inc., priority 2023, published 2025)
